Reference: patent publication US9255094B2, “Pyrido[4,3-B]indoles and methods of use” (Medivation Technologies, Inc., priority 2009, dated 2016)

Tests used:
[1] = target: T1, human recombinant serotonin (5-Hydroxytryptamine) 5-HT6 receptor (Homo sapiens, UniProt P50406); assay: Serotonin 5-HT6 radioligand binding assay ([3H]LSD); conditions: compound at 0.1 μM, HeLa cells, read-out: Percent Inhibition of ligand binding, Serotonin (0.1 μM) 5-HT6
T1 construct: expressed in transfected cells; host or cells: human HeLa cells
Description: Compounds of the invention were incubated with 1.5 nM [3H]Lysergic acid diethylamide (LSD) for 120 min at 37° C. […] Receptor proteins were filtered and washed, the filters were then counted to determine [3H]LSD specifically bound. Compounds were screened at 1 μM or lower, using 1% DMSO as vehicle. Biochemical assay results are presented as the percent inhibition of specific binding in Table 4.

[2] = target: T2, human recombinant adrenergic α2C receptor (Homo sapiens, UniProt P18825); assay: Adrenergic α2C radioligand binding assay ([3H]MK-912); conditions: compound at 0.1 μM; 1 nM [3H]MK-912; insect Sf9 cells; read-out: Percent Inhibition of ligand binding, Adrenergic (0.1 μM) a2C
T2 construct: expressed in transfected cells; host or cells: insect Sf9 cells
T2 sequence (P18825 1-462): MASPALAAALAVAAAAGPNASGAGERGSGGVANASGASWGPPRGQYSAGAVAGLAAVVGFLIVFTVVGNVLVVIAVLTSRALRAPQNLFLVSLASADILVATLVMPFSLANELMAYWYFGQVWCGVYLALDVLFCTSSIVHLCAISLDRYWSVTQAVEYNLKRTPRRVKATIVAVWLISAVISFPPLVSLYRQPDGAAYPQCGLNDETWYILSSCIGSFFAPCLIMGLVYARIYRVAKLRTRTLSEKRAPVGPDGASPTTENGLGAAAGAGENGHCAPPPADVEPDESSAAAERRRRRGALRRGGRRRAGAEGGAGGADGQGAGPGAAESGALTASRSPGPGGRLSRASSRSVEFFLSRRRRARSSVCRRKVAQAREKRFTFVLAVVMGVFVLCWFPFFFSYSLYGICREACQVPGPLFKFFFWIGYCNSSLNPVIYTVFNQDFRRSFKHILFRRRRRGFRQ
Description: To evaluate in radioligand binding assays the activity of compounds of the invention, human recombinant adrenergic α2C receptor expressed in insect Sf9 cells (Uhlen S et al. J. Pharmacol. Exp. Ther. 271:1558, 1994) in a modified Tris-HCl buffer (50 mM Tris-HCl, pH 7.4, 12.5 mM MgCl2, 2 mM EDTA) is used. Compounds of the invention are incubated with 1 nM [^3H]MK-912 for 60 min at 25° C. Non-specific binding is estimated in the presence of 10 μM WB-4101. Receptor proteins are filtered and washed, the filters are then counted to determine [^3H]MK-912 specifically bound. Compounds are screened at 1 μM or lower, using 1% DMSO as vehicle. Compounds of the invention are tested in this biochemical assay and percent inhibition of specific binding is determined.

[3] = target: human recombinant histamine H1 receptor (Homo sapiens, UniProt P35367); assay: Histamine H1 radioligand binding assay ([3H]Pyrilamine); conditions: compound at 0.1 μM, receptor expressed in CHO cells
Outline: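 Membranes from CHO cells expressing the receptor, in 50 mM Tris-HCl pH 7.4 with 2 mM MgCl2, 100 mM NaCl and 250 mM sucrose, incubated with 1.2 nM [3H]pyrilamine for 180 min at 25° C; nonspecific binding defined with 1 μM pyrilamine.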

[4] = target: human recombinant dopamine D2L receptor (Homo sapiens, UniProt P14416); assay: Dopamine D2L radioligand binding assay ([3H]Spiperone); conditions: compound at 1 μM, 0.16 nM [3H]Spiperone, CHO cells, read-out: Percent Inhibition of ligand binding, Dopamine (1μM)
Outline: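 Test compounds at 1 μM or lower (1% DMSO vehicle) incubated with 0.16 nM [3H]Spiperone for 120 min at 25 °C; nonspecific binding defined with 10 μM haloperidol. Filtration and counting of bound radioligand; values given as percent inhibition of specific binding.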

[5] = target: T3, human recombinant adrenergic α2B receptor (Homo sapiens, UniProt P18089); assay: Adrenergic α2B radioligand binding assay ([3H]Rauwolscine); conditions: compound at 0.1 μM; 2.5 nM [3H]Rauwolscine; CHO-K1 cells; read-out: Percent Inhibition of ligand binding, Adrenergic (0.1 μM) a2B
T3 construct: expressed in transfected cells; host or cells: Chinese hamster ovary (CHO-K1) cells
T3 sequence (P18089 1-450): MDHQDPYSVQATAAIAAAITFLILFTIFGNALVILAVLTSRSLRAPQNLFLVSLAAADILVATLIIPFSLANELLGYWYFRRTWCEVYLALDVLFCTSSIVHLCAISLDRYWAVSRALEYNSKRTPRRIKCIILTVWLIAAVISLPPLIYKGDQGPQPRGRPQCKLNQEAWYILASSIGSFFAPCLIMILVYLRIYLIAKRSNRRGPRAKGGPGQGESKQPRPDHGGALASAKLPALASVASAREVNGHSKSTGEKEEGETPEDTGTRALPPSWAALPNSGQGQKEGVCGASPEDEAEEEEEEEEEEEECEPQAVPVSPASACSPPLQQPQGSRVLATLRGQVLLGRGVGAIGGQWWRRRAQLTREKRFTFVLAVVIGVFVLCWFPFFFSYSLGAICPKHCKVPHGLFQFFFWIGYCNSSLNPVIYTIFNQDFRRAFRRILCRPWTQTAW
Description: To evaluate in radioligand binding assays the activity of compounds of the invention, human recombinant adrenergic α2B receptor expressed in Chinese hamster ovary (CHO-K1) cells (Uhlen S et al., Eur. J. Pharmacol. 343(1):93, 1998) in a modified Tris-HCl buffer (50 mM Tris-HCl, pH 7.4, 12.5 mM MgCl2, 1 mM EDTA, 0.2% BSA) was used. Compounds of the invention were incubated with 2.5 nM [^3H]Rauwolscine for 60 min at 25° C. Non-specific binding was estimated in the presence of 10 μM Prozosin. Receptor proteins were filtered and washed, the filters were then counted to determine [^3H]Rauwolscine specifically bound.

Chain of human recombinant histamine H1 receptor (P35367 whole entry): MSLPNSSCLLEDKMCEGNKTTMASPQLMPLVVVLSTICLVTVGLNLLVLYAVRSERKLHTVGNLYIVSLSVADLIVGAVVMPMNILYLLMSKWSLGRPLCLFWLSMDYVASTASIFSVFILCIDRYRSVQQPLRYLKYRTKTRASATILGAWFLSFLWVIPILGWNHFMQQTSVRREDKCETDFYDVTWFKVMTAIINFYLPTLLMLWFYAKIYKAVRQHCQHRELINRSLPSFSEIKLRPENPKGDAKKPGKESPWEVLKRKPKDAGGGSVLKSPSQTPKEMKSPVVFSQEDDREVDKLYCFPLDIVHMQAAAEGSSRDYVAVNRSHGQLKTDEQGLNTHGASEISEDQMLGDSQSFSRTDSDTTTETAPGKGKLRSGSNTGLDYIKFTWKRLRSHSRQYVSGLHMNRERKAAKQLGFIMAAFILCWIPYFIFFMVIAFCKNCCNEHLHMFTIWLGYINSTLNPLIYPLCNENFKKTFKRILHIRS
T1 sequence (P50406 whole entry): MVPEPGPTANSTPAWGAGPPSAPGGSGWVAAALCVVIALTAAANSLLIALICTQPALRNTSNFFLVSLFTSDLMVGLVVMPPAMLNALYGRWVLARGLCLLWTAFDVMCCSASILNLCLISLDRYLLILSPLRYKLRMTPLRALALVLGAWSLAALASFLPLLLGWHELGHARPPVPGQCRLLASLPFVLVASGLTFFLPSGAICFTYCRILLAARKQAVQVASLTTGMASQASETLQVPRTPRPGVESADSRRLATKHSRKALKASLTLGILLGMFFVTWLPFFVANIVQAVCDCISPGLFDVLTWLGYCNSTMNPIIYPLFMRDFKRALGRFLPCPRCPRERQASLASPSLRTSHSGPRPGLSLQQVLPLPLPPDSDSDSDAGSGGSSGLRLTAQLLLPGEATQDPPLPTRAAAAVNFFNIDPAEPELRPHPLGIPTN
Chain of human recombinant dopamine D2L receptor (P14416 whole entry): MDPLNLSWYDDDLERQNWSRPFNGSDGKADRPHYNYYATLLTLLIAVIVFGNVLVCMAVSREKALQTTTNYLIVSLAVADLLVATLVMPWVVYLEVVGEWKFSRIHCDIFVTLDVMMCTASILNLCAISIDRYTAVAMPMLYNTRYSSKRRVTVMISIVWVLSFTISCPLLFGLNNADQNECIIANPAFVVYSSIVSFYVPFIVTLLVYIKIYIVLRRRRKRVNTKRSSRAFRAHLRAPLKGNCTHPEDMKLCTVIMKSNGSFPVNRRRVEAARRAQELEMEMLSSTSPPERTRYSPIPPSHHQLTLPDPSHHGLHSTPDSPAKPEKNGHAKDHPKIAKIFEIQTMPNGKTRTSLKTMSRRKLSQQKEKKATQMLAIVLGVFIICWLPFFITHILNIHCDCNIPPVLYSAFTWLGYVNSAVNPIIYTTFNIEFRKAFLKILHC

SMILES	inhibition at 0.1 µM [1]	inhibition at 0.1 µM [2]	inhibition at 0.1 µM [3]	inhibition at 1 µM [4]	inhibition at 0.1 µM [5]
CC[C@](O)(Cn1c2c(c3cc(C)ccc31)CN(C)CC2)c1ccc(F)cc1 [Compound 1-60, (R)-1-(2,8-Dimethyl-3,4-dihydro-1H-pyrido[4,3-b]indol-5(2H)-yl)-2-(4-fluorophenyl)butan-2-ol]	48%	9%	10%	-14%	1%
CCCC[C@](O)(Cn1c2c(c3cc(Cl)ccc31)CN(C)CC2)c1ccc(F)cc1 [Compound 1-61, (R)-1-(8-Chloro-2-methyl-3,4-dihydro-1H-pyrido[4,3-b]indol-5(2H)-yl)-2-(4-fluorophenyl)hexan-2-ol]	68%	11%	-7%	14%	2%
CC[C@](O)(Cn1c2c(c3cc(C)ccc31)CN(C)CC2)c1ccncc1 [Compound 1-63, (R)-1-(2,8-Dimethyl-3,4-dihydro-1H-pyrido[4,3-b]indol-5(2H)-yl)-2-(pyridine-4-yl)butan-2-ol]	25%	4%	18%	14%	47%
Cc1ccc2c(c1)c1c(n2CCc2ccc(C)nc2)CCN(CC(F)(F)F)C1 [Compound 1-65, 8-methyl-5-(2-(6-methylpyridin-3-yl)ethyl)-2-(2,2,2-trifluoroethyl)-2,3,4,5-tetrahydro-1H-pyrido[4,3-b]indole]	-6%	-1%	11%	12%	-9%
CCCC[C@@](O)(Cn1c2c(c3cc(Cl)ccc31)CN(C)CC2)c1ccc(F)cc1 [Compound 1-67, (S)-1-(8-chloro-2-methyl-3,4-dihydro-1H-pyrido[4,3-b]indol-5(2H)-yl)-2-(4-fluorophenyl)hexan-2-ol]	25%	13%	-2%	20%	-3%
